# Laboratory results published in patent EP0320984A2, “1,4-Dihydropyridine derivatives” (FUJIREBIO INC., priority 1987, dated 1989).
# What was measured:
# Thoracic aortas = test: Inhibitory activity on KCl-induced contraction of aorta (helical strips of thoracic aorta); set-up: species or system male rabbits; conditions: 10^-6M, 60min after addition; 30 mM KCl, rabbit aorta strips, 37°C
# Procedure: 2. Experiment for inhibitory activity on KCl-induced contraction of aorta: Thoracic aortas were isolated from male rabbits and cut into helical strips. The preparations were mounted vertically in organ baths containing 30 ml of Krebs- Henseleit solution. […] Test and reference compounds were added to the bath 30 minutes after KCl treatment.
# [1] = tested on: Rabbit platelet rich plasma (PRP); test: Inhibitory activity on platelet aggregation in rabbit platelet rich plasma (light transmission); format: cell-based; conditions: added to PRP 30 minutes before agent; for Inhibitory activity on platelet aggregation, PAF: compound 3x10^-6 (unit not given), Platelet activating factor (PAF) 10 mg/ml; for Inhibitory activity on platelet aggregation, ADP / Inhibitory activity on platelet aggregation, AA / Inhibitory activity on platelet aggregation, Collagen: compound 10^-4 (unit not given); for Inhibitory activity on platelet aggregation, ADP: Adenosine diphosphate (ADP) 5 mM; for Inhibitory activity on platelet aggregation, AA: Arachidonic acid (AA) 1 mM; for Inhibitory activity on platelet aggregation, Collagen: aggregating agent collagen
# Procedure: 3. Experiment for inhibitory activity on platelet aggregation in rabbit:
# Rabbit platelet rich plasma (PRP) was prepared by centrifugation of the citrated blood at 380 g for 10 minutes at 20°C. Test solution (10 µl) was added to PRP (200 µl) 30 minutes before treatment of aggregation agents (10 µl). The extent of aggregation was expressed with the maximum change in light transmission for PRP and platelet poor plasma was taken as a value of 100%
SMILES,Inhibitory effect on KCl-induced contraction (Thoracic aortas) [%],"Inhibitory activity on platelet aggregation, PAF [1] [%]","Inhibitory activity on platelet aggregation, ADP [1] [%]","Inhibitory activity on platelet aggregation, AA [1] [%]","Inhibitory activity on platelet aggregation, Collagen [1] [%]"
"C/C=C/C=C/COC(=O)C1=C(C)NC(C)=C(C(=O)OC/C=C/c2ccc(Cn3ccnc3)cc2)C1c1cccc([N+](=O)[O-])c1 (centres unmarked) [Example 15, (E)-2,(E)-4-hexadien-1-yl (E)-3-{4-(1-imidazolylmethyl)phenyl}2-propen-1-yl 1,4-dihydro-2,6-dimethyl-4-(3-nitrophenyl)pyridine-3,5-dicarboxylate]",21.6,74.1,8.8,30.2,10.5
"COC(=O)C1=C(C)NC(C)=C(C(=O)OC/C=C/C=C/c2ccc(Cn3ccnc3)cc2)C1c1cccc([N+](=O)[O-])c1 (centres unmarked) [Example 19, 5-{4-(1-imidazolylmethyl)phenyl}-(E)-2,(E)-4-pentadien-1-yl methyl 1,4-dihydro-2,6-dimethyl-4-(3-nitrophenyl)pyridine-3,5-dicarboxylate]",68.8,41.5,17.2,35.5,66.3
"COC(=O)C1=C(C)NC(C)=C(C(=O)OC/C=C/c2ccc(Cn3ccnc3)cc2)C1c1cccnc1 (centres unmarked) [Example 22, (E)-3-{4-(1-imidazolylmethyl)phenyl}-2-propen-1-yl methyl 1,4-dihydro-2,6-dimethyl-4-(3-pyridyl)pyridine-3,5-dicarboxylate]",,0,14.7,23.2,24.7
"COC(=O)C1=C(C)NC(C)=C(C(=O)OC/C=C/c2ccc(Cn3ccnc3)cc2)C1c1ccnc2ccccc12 (centres unmarked) [Example 23, (E)-3-{4-(1-imidazolylmethyl)phenyl}-2-propen-1-yl methyl 1,4-dihydro-2,6-dimethyl-4-(4-quinolyl)pyridine-3,5-dicarboxylate]",,0,2.6,25.7,29.5
"COC(=O)C1=C(C)NC(C)=C(C(=O)OC/C=C/c2ccc(C(C)n3ccnc3)cc2)C1c1cccc([N+](=O)[O-])c1 (centres unmarked) [Example 24, (E)-3-{4-{1-(1-imidazolyl)ethyl}phenyl}-2-propen-1-yl methyl 1,4-dihydro-2,6-dimethyl-4-(3-nitrophenyl)pyridine-3,5-dicarboxylate]",74.3,18.3,7.8,28.2,27.5
"COC(=O)C1=C(C)NC(C)=C(C(=O)OC/C=C/c2cccc(Cn3ccnc3)n2)C1c1cccc([N+](=O)[O-])c1 (centres unmarked) [Example 25, (E)-3-{6-(1-imidazolylmethyl)pyridine-2-yl}-2-propen-1-yl methyl 1,4-dihydro-2,6-dimethyl-4-(3-nitrophenyl)pyridine-3,5-dicarboxylate]",,28.5,0,27.8,22.5
"COC(=O)C1=C(C)NC(C)=C(C(=O)OCCON=Cc2ccc(Cn3ccnc3)cc2)C1c1cccc([N+](=O)[O-])c1 (centres unmarked) [Example 26, 2-[{4-(1-imidazolylmethyl)benzylideneamino}oxy]ethyl methyl 1,4-dihydro-2,6-dimethyl-4-(3-nitrophenyl)pyridine3,5-dicarboxylate]",,30.0,6.0,27.6,13.5
"COC(=O)C1=C(C)NC(C)=C(C(=O)OCCN(C)Cc2ccccc2)C1c1cccc([N+](=O)[O-])c1.Cl (centres unmarked) [NICARDIPINE, 1,4-dihydro-2,6-dimethyl-4-(3-nitrophenyl)pyridine-3,5-dicarboxylic acid-3-[2-(N-benzyl-N-methylamino)ethyl]ester-5-methyl ester hydrochloride, reference compound]",91.1,,6.9,,3.6
"COC(=O)C1=C(C)NC(C)=C(C(=O)OC)C1c1ccccc1[N+](=O)[O-] [NIFEDIPINE, 1,4-dihydro-2,6-dimethyl-4-(2-nitrophenyl)pyridine-3,5-dicarboxylic acid dimethyl ester, reference compound]",87.6,,0,0.2,5.1
